In ChEMBL document CHEMBL1201862, “PubChem BioAssay data set” (2004):
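Dose response: 5 concentrations. Exposure: 48 h. Format: 96-well plates. Endpoint: linear interpolation; highest concentration if not reached. GI50: concentration for 50% inhibition of growth.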 The source made the active and inactive calls. Rule as the data show it: active = GI50 up to about 1.1 µM and inactive = higher.

Assays:
Test in all cases: NCI-60 cell line screen, 48 h
HCC 2998 = test system: HCC 2998
M14 = test system: M14
DLD-1 = test system: DLD-1
SK-OV-3 = test system: SK-OV-3
UACC-257 = test system: UACC-257
HT-29 = test system: HT-29
SW-620 = test system: SW-620
SF-539 = test system: SF-539
COLO 205 = test system: COLO 205
SK-MEL-2 = test system: SK-MEL-2
XF498 = test system: XF498
UO-31 = test system: UO-31
SNB-75 = test system: SNB-75
M19-MEL = test system: M19-MEL
HOP-92 = test system: HOP-92
HOP-62 = test system: HOP-62
OVCAR-3 = test system: OVCAR-3
OVCAR-4 = test system: OVCAR-4
IGROV-1 = test system: IGROV-1
RPMI-8226 = test system: RPMI-8226
SNB-78 = test system: SNB-78
SK-MEL-28 = test system: SK-MEL-28
LOX IMVI = test system: LOX IMVI
CAKI-1 = test system: CAKI-1
DMS-273 = test system: DMS-273
A549 = test system: A549
KM12 = test system: KM12
U-251 = test system: U-251
OVCAR-5 = test system: OVCAR-5
OVCAR-8 = test system: OVCAR-8
SN12C = test system: SN12C
TK-10 = test system: TK-10
Malme-3M = test system: Malme-3M
SNB-19 = test system: SNB-19
KM-20L2 = test system: KM-20L2
HCT-116 = test system: HCT-116
EKVX = test system: EKVX
NCI-H23 = test system: NCI-H23
786-0 = test system: 786-0
SF-295 = test system: SF-295
RXF 393 = test system: RXF 393
SF-268 = test system: SF-268
ACHN = test system: ACHN
NCI-H226 = test system: NCI-H226
UACC-62 = test system: UACC-62
HOP-18 = test system: HOP-18
NCI-H460 = test system: NCI-H460
HCT-15 = test system: HCT-15

Cc1cc(Cl)cc2c1NC(=O)C2(O)CC(=O)c1ccc(F)cc1 (stereo not drawn)
GI50 (HCC 2998): 36.1 µM (inactive)
GI50 (M14): 88.5 µM (inactive)
GI50 (DLD-1): 96.8 µM (inactive)
GI50 (SK-OV-3): > 100 µM (inactive)
GI50 (UACC-257): 37.3 µM (inactive)
GI50 (HT-29): 48.1 µM (inactive)
GI50 (SW-620): 94 µM (inactive)
GI50 (SF-539): 40.9 µM (inactive)
GI50 (COLO 205): 24.8 µM (inactive)
GI50 (SK-MEL-2): 73.3 µM (inactive)
GI50 (XF498): 32.1 µM (inactive)
GI50 (UO-31): 47.6 µM (inactive)
GI50 (SNB-75): 26.5 µM (inactive)
GI50 (M19-MEL): 5.41 µM (inactive)
GI50 (HOP-92): > 100 µM (inactive)
GI50 (HOP-62): > 100 µM (inactive)
GI50 (OVCAR-3): 37.8 µM (inactive)
GI50 (OVCAR-4): 41.9 µM (inactive)
GI50 (IGROV-1): 58.9 µM (inactive)
GI50 (RPMI-8226): 27.2 µM (inactive)
GI50 (SNB-78): 31.4 µM (inactive)
GI50 (SK-MEL-28): 37.2 µM (inactive)
GI50 (LOX IMVI): 27.7 µM (inactive)
GI50 (CAKI-1): > 100 µM (inactive)
GI50 (DMS-273): 77.3 µM (inactive)
GI50 (A549): 30.2 µM (inactive)
GI50 (KM12): > 100 µM (inactive)
GI50 (U-251): 39 µM (inactive)
GI50 (OVCAR-5): > 100 µM (inactive)
GI50 (OVCAR-8): 80.7 µM (inactive)
GI50 (SN12C): 27.2 µM (inactive)
GI50 (TK-10): > 100 µM (inactive)
GI50 (Malme-3M): 29.3 µM (inactive)
GI50 (SNB-19): > 100 µM (inactive)
GI50 (KM-20L2): > 100 µM (inactive)
GI50 (HCT-116): 56.4 µM (inactive)
GI50 (EKVX): > 100 µM (inactive)
GI50 (NCI-H23): 61.1 µM (inactive)
GI50 (786-0): 27 µM (inactive)
GI50 (SF-295): 53.8 µM (inactive)
GI50 (RXF 393): 19.7 µM (inactive)
GI50 (SF-268): 67 µM (inactive)
GI50 (ACHN): 32.5 µM (inactive)
GI50 (NCI-H226): 39.8 µM (inactive)
GI50 (UACC-62): 20 µM (inactive)
GI50 (HOP-18): 11.3 µM (inactive)
GI50 (NCI-H460): 83.8 µM (inactive)
GI50 (HCT-15): 74.1 µM
